In ChEMBL document CHEMBL1156350, “New multiflorane-type triterpenoid acids from Sandoricum indicum” (J Nat Prod, 2001) one finds IC50 data, which are given here for eight compounds.

Converted amounts (≈) assume the structure as drawn.

Holding throughout (assay type): functional, cell-based
One assay has as its system Lymphocyte. Description: Immunosuppressant activity in mouse lymphocytes assessed as inhibition of lymphocyte proliferation.
The subject of a further assay is P388/S. In words: Cytotoxicity against drug-sensitive mouse P388/S cells.
The subject of assay [1] is P388. Description: Cytotoxicity against vincristine-resistant mouse P388 cells.
In assay [2] the test system is P388. Description: Cytotoxicity against vincristine-resistant mouse P388 cells in presence of vincristine.
The subject of assay [3] is P388. Description: Cytotoxicity against adriamycin-resistant mouse P388 cells.
Assay [4] deals with P388. In words: Cytotoxicity against adriamycin-resistant mouse P388 cells in presence of adriamycin.
For another assay, the system named is HL-60. In words: Cytotoxicity against human HL60 cells.

Broadly, the IC50 is the concentration that gives 50% inhibition. In the case of `C=C(C)[C@@H]1CC[C@]2(C)[C@H](CC=C3[C@@H]4C[C@](C)(C(=O)O)CC[C@]4(C)CC[C@]32C)[C@@]1(C)CCC(=O)O`, the IC50 in the assay on Lymphocyte was more than 100 µg/mL; in the assay on P388/S it was more than 25 µg/mL; in the assay on P388 [1], more than 25 µg/mL; in the assay with P388 [2], more than 25 µg/mL; with P388 [3], more than 25 µg/mL; in the assay with P388 [4], more than 25 µg/mL.
`C=C(C)[C@@H]1CC[C@]2(C)[C@H](CC=C3[C@@H]4C[C@@](C)(C(=O)O)CC[C@]4(C)CC[C@]32C)[C@@]1(C)CCC(=O)O` [KOETJAPIC ACID]: the IC50 is more than 100 µg/mL in the assay with Lymphocyte; more than 25 µg/mL in the assay on P388/S; more than 25 µg/mL with P388 [1]; more than 25 µg/mL with P388 [2]; more than 25 µg/mL in the assay on P388 [3]; more than 25 µg/mL with P388 [4].
As to `CC1(C)C(=O)CC[C@]2(C)C3=C(CC[C@@H]12)[C@@]1(C)CC[C@@]2(C)CC[C@@](C)(C(=O)O)C[C@@]2(O)[C@]1(C)[C@H](O)C3` [SANDORINIC ACID A], the IC50 with Lymphocyte came to 25 µg/mL (≈ 51.4 µM); in the assay with HL-60, 15 µg/mL (≈ 30.8 µM); in the assay with P388/S, 16 µg/mL (≈ 32.9 µM); with P388 [1] it was 10 µg/mL (≈ 20.5 µM); in the assay on P388 [2], 9 µg/mL; with P388 [3] it was 9 µg/mL (≈ 18.5 µM). The 50% inhibitory concentration (IC50) with P388 [4] came to 9 µg/mL.
With `CC1(C)C(=O)CC[C@]2(C)[C@H]3C[C@@H](O)[C@@]4(C)[C@]5(O)C[C@](C)(C(=O)O)CC[C@]5(C)CC[C@]4(C)C3=CC[C@@H]12` [SANDORINIC ACID B], the IC50 with Lymphocyte was 50 µg/mL (≈ 103 µM); in the assay with P388/S, more than 25 µg/mL; in the assay with P388 [1] it was 16 µg/mL (≈ 32.9 µM); with P388 [2], 16 µg/mL; with P388 [3], 18 µg/mL (≈ 37 µM); in the assay with P388 [4] it was more than 25 µg/mL.
Consider `CC1(C)C(=O)CC[C@]2(C)C3=C(CC[C@@H]12)[C@@]1(C)CC[C@@]2(C)CC[C@@](C)(C(=O)O)C[C@H]2[C@]1(C)[C@H](O)C3` [SANDORINIC ACID C], for which the IC50 in the assay with P388/S, in the assay with P388 [1], in the assay on P388 [2], with P388 [3] and in the assay with P388 [4] was more than 25 µg/mL each time.
Turning to `CC1(C)[C@@H](O)CC[C@]2(C)[C@H]3CC=C4[C@@H]5C[C@](C)(C(=O)O)CC[C@]5(C)CC[C@@]4(C)[C@]3(C)CC[C@@H]12`, the IC50 in the assay on Lymphocyte is 50 µg/mL (≈ 109 µM); in the assay with P388/S it was more than 25 µg/mL; in the assay on P388 [1], more than 25 µg/mL; with P388 [2], more than 25 µg/mL; with P388 [3], more than 25 µg/mL; in the assay with P388 [4], more than 25 µg/mL.
With `CC1(C)C(=O)CC[C@]2(C)[C@H]3CC=C4[C@@H]5C[C@](C)(C(=O)O)CC[C@]5(C)CC[C@@]4(C)[C@]3(C)CC[C@@H]12`, the IC50 with Lymphocyte was 25 µg/mL (≈ 55 µM); in the assay with HL-60 it was 15 µg/mL (≈ 33 µM); in the assay with P388/S, more than 25 µg/mL; in the assay on P388 [1], 12 µg/mL (≈ 26.4 µM); with P388 [2], 12 µg/mL; in the assay on P388 [3], more than 25 µg/mL. In the assay with P388 [4], the IC50 was more than 25 µg/mL.
With `CC1(C)[C@H](O)CC[C@]2(C)[C@H]3CC=C4[C@@H]5C[C@](C)(C(=O)O)CC[C@]5(C)CC[C@@]4(C)[C@]3(C)CC[C@@H]12` [KATONIC ACID], the IC50 in the assay with Lymphocyte is 25 µg/mL (≈ 54.7 µM); in the assay with P388/S, more than 25 µg/mL; with P388 [1], 25 µg/mL (≈ 54.7 µM); in the assay on P388 [2], 16 µg/mL; in the assay on P388 [3] it was more than 25 µg/mL; in the assay on P388 [4] it was more than 25 µg/mL.
